From ChEMBL document CHEMBL2203092, “Clerodane diterpenoids from Croton crassifolius” (J Nat Prod, 2012)
Converted amounts (≈) assume the structure as drawn.

These compounds were tested on Human alphaherpesvirus 1 (assay: Antiviral activity against HSV1 F ATCC VR733 infected in african green monkey Vero cells assessed as reduction of virus-induced cytopathic effect after 3 days). Conditions: Human alphaherpesvirus 1, Strain F ATCC VR 733, Vero, 72 h.
Type: functional, organism-based

IC50 | SMILES
25 µg/mL (≈ 72.2 µM) | C[C@@H]1CC(=O)[C@@H]2[C@@H](C(=O)O)CCC[C@H]2[C@@]12C[C@@H](c1ccoc1)OC2=O
0.2 µg/mL (≈ 0.888 µM) | Nc1nc2c(ncn2COCCO)c(=O)[nH]1 [ACYCLOVIR]
50 µg/mL (≈ 140 µM) | COC(=O)[C@@]1(C)CC(=O)C=C2C1=CC[C@@H](C)[C@]2(C)CC(=O)c1ccoc1 [CRASSIFOLIN C]
50 µg/mL (≈ 134 µM) | COC(=O)[C@]12CCCC3=C1[C@@H](C[C@H](C)[C@@]31C[C@H](c3ccoc3)OC1=O)OC2 [CRASSIFOLIN D]
50 µg/mL (≈ 120 µM) | COC(=O)[C@@]1(C)C2=C(CC[C@H]1OC(C)=O)[C@@]1(C[C@@H](c3ccoc3)OC1=O)[C@H](C)CC2 [CRASSIFOLIN F]
50 µg/mL (≈ 139 µM) | COC(=O)[C@]1(C)CCCC2=C1CC[C@@H](C)[C@]21C[C@@H](c2ccoc2)OC1=O [PENDULIFLAWOROSIN]
